≈ marks a conversion by molar mass, not a printed value.
Columns and labels:
E. coli ELZ4000 = experiment: Antibacterial activity, MIC, multi-drug resistant clinical isolate (Table 3); assay type: cell-based; settings: Escherichia coli, ELZ4000, read-out: MIC ELZ4000
How it was run: (§1)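 MIC (μg/mL) read as lowest concentration with no macroscopically visible growth, determined by microbroth dilution.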

E. coli ELZ4251 = experiment: as above; assay type: cell-based; settings: Escherichia coli
How it was run: as §1

E. coli 25922 = experiment: Antibacterial activity, microbroth dilution MIC (Table 1); assay type: cell-based, Escherichia coli; settings: Escherichia coli; microbroth dilution; control Gram-negative E. coli 25922 strain; read-out: MIC, 25922
How it was run: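 Each strain is exposed to test compound in a microbroth dilution series; visible growth is scored macroscopically, and the lowest growth-free concentration is recorded as MIC in μg/mL.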

[1] = tested on: Staphylococcus aureus (S. aureus) 29213; experiment: as above; assay type: cell-based; settings: microbroth dilution, Gram-positive S. aureus 29213, read-out: MIC, 29213
How it was run: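 MIC (μg/mL) is taken as the lowest concentration with no macroscopically visible growth. Strains tested by microbroth dilution: Gram-positive S. aureus 29213, control Gram-negative E. coli 25922, and super-sensitive E. coli BAS849.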

[2] = tested on: Escherichia coli (E. coli) BAS849; experiment: as above; assay type: cell-based; settings: microbroth dilution, super sensitive Gram-negative E. coli BAS849, read-out: MIC, BAS849
How it was run: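 Read-out: visual absence of growth. The lowest concentration meeting this gives the MIC, expressed in μg/mL, with microbroth dilution as the method.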

[3] = tested on: Moraxella catarrhalis (M. catarrhalis) 25238; experiment: Antibacterial activity, MIC (Table 7); assay type: cell-based
From the text: (§2) The antibacterial activity from a microbroth dilution method may be presented as the minimum inhibitory concentration (MIC in μg/mL). The MIC value is the lowest concentration of drug which prevents macroscopically visible growth under test conditions.
(§3) Antibacterial activity of test compounds against the Gram-negative bacteria Haemophilus influenzae (H. influenzae) 49247 is shown in Table 6, Moraxella catarrhalis (M. catarrhalis) 25238 is shown in Table 7 and Neisseria meningitidis (N. meningitidis) 13090 is shown in Table 8.

E. coli LZ3111 = experiment: Antibacterial activity, MIC, quinolone resistant strain (Table 2); assay type: cell-based; settings: Escherichia coli, LZ3111, read-out: MIC LZ3111
How it was run: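 Broth microdilution. Read-out: MIC in μg/mL, taken as lowest concentration with no macroscopically visible growth.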

A. baumannii MXX2240 = experiment: Antibacterial activity, MIC, resistant strain (Table 4); assay type: cell-based; settings: Acinetobacter baumannii, MXX2240; resistant A. baumannii MMX2240, multi-drug resistant clinical isolate; read-out: MIC, MMX2240
How it was run: (§4)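 MIC in μg/mL by microbroth dilution, scored as the lowest level that suppresses visible growth.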

K. pneumoniae MXX1232 = experiment: as above; assay type: cell-based; settings: Klebsiella pneumoniae, MXX1232; resistant K. pneumoniae MMX1232, multi-drug resistant clinical isolate; read-out: MIC, MMX1232
How it was run: as §4

[4] = tested on: Neisseria meningitidis (N. meningitidis) 13090; experiment: Antibacterial activity, MIC (Table 8); assay type: cell-based
How it was run: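 Broth microdilution MIC, read as the lowest drug concentration preventing macroscopically visible growth under test conditions and reported in μg/mL.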

[5] = tested on: Haemophilus influenzae (H. influenzae) 49247; experiment: Antibacterial activity, MIC (Table 6); assay type: cell-based
From the text: as §2, §3

[6] = tested on: Klebsiella pneumoniae (K. pneumoniae) 35657; experiment: Antibacterial activity, MIC (Table 4); assay type: cell-based; settings: K. pneumoniae 35657, read-out: MIC, 35657
How it was run: as §4

[7] = tested on: Acinetobacter baumannii (A. baumannii) BAA747; experiment: Antibacterial activity, MIC (Table 4); assay type: cell-based; settings: A. baumannii BAA747, read-out: MIC, BAA747
How it was run: as §4

[8] = tested on: Pseudomonas aeruginosa (P. aeruginosa) 27853; experiment: Antibacterial activity, MIC (Table 5); assay type: cell-based; settings: P. aeruginosa 27853, read-out: MIC, 27853
How it was run: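 Microbroth dilution; MIC (μg/mL) = lowest concentration with no macroscopically visible growth.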

SMILES	MIC (E. coli ELZ4000)	MIC (E. coli ELZ4251)	MIC (E. coli 25922)	MIC [1]	MIC [2]	MIC [3]	MIC (E. coli LZ3111)	MIC (A. baumannii MXX2240)	MIC (K. pneumoniae MXX1232)	MIC [4]	MIC [5]	MIC [6]	MIC [7]	MIC [8]
CCc1c(-c2ccc3c(c2)cc(CN2CCC2)n3C)[nH]c(=O)c(C(=O)O)c1O [Cpd 186, 6-(2-(azetidin-1-ylmethyl)-1-methyl-1H-indol-5-yl)-5-ethyl-4-hydroxy-2-oxo-1,2-dihydropyridine-3-carboxylic acid]	3.5 to 12.5 µg/mL (≈ 9.18 to 32.8 µM)	3.5 to 12.5 µg/mL (≈ 9.18 to 32.8 µM)	< 1 µg/mL	3.5 to 12.5 µg/mL (≈ 9.18 to 32.8 µM)	< 1 µg/mL	< 1 µg/mL	1 to 3.5 µg/mL (≈ 2.62 to 9.18 µM)	1 to 3.5 µg/mL (≈ 2.62 to 9.18 µM)	12.5 to 150 µg/mL (≈ 32.8 to 393 µM)	3.5 to 12.5 µg/mL (≈ 9.18 to 32.8 µM)	< 1 µg/mL	< 1 µg/mL	< 1 µg/mL	3.5 to 12.5 µg/mL (≈ 9.18 to 32.8 µM)
CCc1c(-c2ccc3c(c2)cc(CN2CC(O)C2)n3C)[nH]c(=O)c(C(=O)O)c1O [Cpd 187, 5-ethyl-4-hydroxy-6-(2-((3-hydroxyazetidin-1-yl)methyl)-1-methyl-1H-indol-5-yl)-2-oxo-1,2-dihydropyridine-3-carboxylic acid]	12.5 to 150 µg/mL (≈ 31.5 to 377 µM)	3.5 to 12.5 µg/mL (≈ 8.81 to 31.5 µM)	< 1 µg/mL	12.5 to 150 µg/mL (≈ 31.5 to 377 µM)	< 1 µg/mL	< 1 µg/mL	1 to 3.5 µg/mL (≈ 2.52 to 8.81 µM)	12.5 to 150 µg/mL (≈ 31.5 to 377 µM)	12.5 to 150 µg/mL (≈ 31.5 to 377 µM)	< 1 µg/mL	< 1 µg/mL	1 to 3.5 µg/mL (≈ 2.52 to 8.81 µM)	1 to 3.5 µg/mL (≈ 2.52 to 8.81 µM)	3.5 to 12.5 µg/mL (≈ 8.81 to 31.5 µM)
CCc1c(-c2ccc3c(c2)cc(CN2CC(N)C2)n3C)[nH]c(=O)c(C(=O)O)c1O [Cpd 188, 6-(2-((3-aminoazetidin-1-yl)methyl)-1-methyl-1H-indol-5-yl)-5-ethyl-4-hydroxy-2-oxo-1,2-dihydropyridine-3-carboxylic acid]	12.5 to 150 µg/mL (≈ 31.5 to 378 µM)	12.5 to 150 µg/mL (≈ 31.5 to 378 µM)	< 1 µg/mL	12.5 to 150 µg/mL (≈ 31.5 to 378 µM)	< 1 µg/mL	3.5 to 12.5 µg/mL (≈ 8.83 to 31.5 µM)	1 to 3.5 µg/mL (≈ 2.52 to 8.83 µM)	12.5 to 150 µg/mL (≈ 31.5 to 378 µM)	12.5 to 150 µg/mL (≈ 31.5 to 378 µM)	3.5 to 12.5 µg/mL (≈ 8.83 to 31.5 µM)	3.5 to 12.5 µg/mL (≈ 8.83 to 31.5 µM)	12.5 to 150 µg/mL (≈ 31.5 to 378 µM)	12.5 to 150 µg/mL (≈ 31.5 to 378 µM)	12.5 to 150 µg/mL (≈ 31.5 to 378 µM)
CCc1c(-c2ccc3c(c2)cc(CN2CC(N(C)C)C2)n3C)[nH]c(=O)c(C(=O)O)c1O [Cpd 189, 6-(2-((3-(dimethylamino)azetidin-1-yl)methyl)-1-methyl-1H-indol-5-yl)-5-ethyl-4-hydroxy-2-oxo-1,2-dihydropyridine-3-carboxylic acid]	12.5 to 150 µg/mL (≈ 29.4 to 353 µM)	3.5 to 12.5 µg/mL (≈ 8.24 to 29.4 µM)	1 to 3.5 µg/mL (≈ 2.36 to 8.24 µM)	3.5 to 12.5 µg/mL (≈ 8.24 to 29.4 µM)	< 1 µg/mL	< 1 µg/mL	3.5 to 12.5 µg/mL (≈ 8.24 to 29.4 µM)	12.5 to 150 µg/mL (≈ 29.4 to 353 µM)	12.5 to 150 µg/mL (≈ 29.4 to 353 µM)	< 1 µg/mL	< 1 µg/mL	1 to 3.5 µg/mL (≈ 2.36 to 8.24 µM)	1 to 3.5 µg/mL (≈ 2.36 to 8.24 µM)	12.5 to 150 µg/mL (≈ 29.4 to 353 µM)
CCc1c(-c2ccc3c(c2)cc(CN2CCCCC2)n3C)[nH]c(=O)c(C(=O)O)c1O [Cpd 192, 5-ethyl-4-hydroxy-6-(1-methyl-2-(piperidin-1-ylmethyl)-1H-indol-5-yl)-2-oxo-1,2-dihydropyridine-3-carboxylic acid]	12.5 to 150 µg/mL (≈ 30.5 to 366 µM)	3.5 to 12.5 µg/mL (≈ 8.55 to 30.5 µM)	< 1 µg/mL	3.5 to 12.5 µg/mL (≈ 8.55 to 30.5 µM)	< 1 µg/mL	< 1 µg/mL	1 to 3.5 µg/mL (≈ 2.44 to 8.55 µM)	1 to 3.5 µg/mL (≈ 2.44 to 8.55 µM)	12.5 to 150 µg/mL (≈ 30.5 to 366 µM)	< 1 µg/mL	< 1 µg/mL	1 to 3.5 µg/mL (≈ 2.44 to 8.55 µM)	1 to 3.5 µg/mL (≈ 2.44 to 8.55 µM)	12.5 to 150 µg/mL (≈ 30.5 to 366 µM)
CCc1c(-c2ccc3c(c2)cc(CNC(C)(C)C)n3C)[nH]c(=O)c(C(=O)O)c1O [Cpd 193, 6-(2-((tert-butylamino)methyl)-1-methyl-1H-indol-5-yl)-5-ethyl-4-hydroxy-2-oxo-1,2-dihydropyridine-3-carboxylic acid]	3.5 to 12.5 µg/mL (≈ 8.81 to 31.4 µM)	3.5 to 12.5 µg/mL (≈ 8.81 to 31.4 µM)	< 1 µg/mL	3.5 to 12.5 µg/mL (≈ 8.81 to 31.4 µM)	< 1 µg/mL	< 1 µg/mL	3.5 to 12.5 µg/mL (≈ 8.81 to 31.4 µM)	1 to 3.5 µg/mL (≈ 2.52 to 8.81 µM)	12.5 to 150 µg/mL (≈ 31.4 to 377 µM)	< 1 µg/mL	< 1 µg/mL	< 1 µg/mL	< 1 µg/mL	3.5 to 12.5 µg/mL (≈ 8.81 to 31.4 µM)

From patent US9409905B2, “Antibacterial compounds and methods for use” (PTC THERAPEUTICS, INC., priority 2011, dated 2016)
